Measurements: publication PMC7990796, “Efficacy of a Combined Antiplatelet Therapy Is Not Affected by a Simultaneous Binding of Cangrelor and PSB 0777 to Albumin” (Frontiers in Pharmacology, 2021)
Like-named read-outs stand apart in the source and are kept apart here.

Key:
human serum albumin [1] = biological target: T1, human serum albumin (Homo sapiens, UniProt P02768); design: purchased Sigma (St. Louis, MO, United States); method as in Boncler et al., 2018; Wzorek et al., 2020; conditions: SPR; ref Boncler et al., 2018; Wzorek et al., 2020; read-out: affinity of binding to HSA (SPR); cited from earlier work
human serum albumin [2] = biological target: T1, human serum albumin; experiment: Fluorescence quenching of HSA (Stern-Volmer, saturation binding, van't Hoff analysis); conditions: for Number of binding sites n / Kd: mean [95% CI]; for KA: KA = 1/KD; for decrease of HSA fluorescence: 2.5 µM HSA; for ΔH^θ / ΔS^θ: van't Hoff plot, 292, 302, 312 K
Procedure: The fluorescence measurements for albumin-drug complexes were performed using a LS50B spectrofluorometer (Perkin Elmer, Waltham, MA, United States) equipped with 1.0 cm quartz cell. […] The slit widths for excitation and emission beams were set to 5 and 10 nm, respectively. The Perkin-Elmer FL WinLab software v. 4.00.03 was used to collect the measured data. An appropriate buffer blank spectrum was subtracted from the measured spectra for fluorescence background correction. […] In consequence, the albumin fluorescence was not corrected for the inner filter effect. All measurements, except a thermodynamic analysis of the binding of antiplatelet compounds to HSA were performed at 25°C after 30 s incubation of a sample with the examined compound. Stock and working solutions of all compounds used in the experiments were prepared in PBS buffer, pH 7.4.
To obtain the binding parameters: dissociation constant (KD) and the number of binding sites per protein molecule (n), the experimental data were fit to a saturation binding curve using nonlinear regression analysis.
The free energy change was estimated from the following relationship Eq. 4: ΔG^θ=ΔH^θ−TΔS^θ (4)

human serum albumin [3] = biological target: T1, human serum albumin; experiment: Fluorescence quenching of HSA in the presence of a competitor (warfarin or cangrelor); type: binding; design: purchased Sigma (St. Louis, MO, United States); conditions: for Kd: mean [95% CI], n = 5–6
Procedure: (§1) The fluorescence measurements for albumin-drug complexes were performed using a LS50B spectrofluorometer (Perkin Elmer, Waltham, MA, United States) equipped with 1.0 cm quartz cell. The fluorescence spectra for HSA solution (2.5 µM in 0.1 M phosphate buffer, pH 7.4) were recorded in the range of wavelength from 250 to 500 nm, with the excitation at 280 nm and the emission set at 350 nm. The slit widths for excitation and emission beams were set to 5 and 10 nm, respectively. The Perkin-Elmer FL WinLab software v. 4.00.03 was used to collect the measured data. An appropriate buffer blank spectrum was subtracted from the measured spectra for fluorescence background correction. The optical density of HSA solution was below 0.1 and within the albumin concentration range of 0‐2.5 µM we observed a linear relationship between protein concentration and fluorescence intensity (p < 0.0001, R^2 = 0.995). In consequence, the albumin fluorescence was not corrected for the inner filter effect. All measurements, except a thermodynamic analysis of the binding of antiplatelet compounds to HSA were performed at 25°C after 30 s incubation of a sample with the examined compound. Stock and working solutions of all compounds used in the experiments were prepared in PBS buffer, pH 7.4. The protein concentration was determined by BCA method ([Smith et al., 1985]).
[…]. [Chaves et al., 2018]; [Manjushree and Revanasiddappa, 2019]). […].
Furthermore, to determine whether one antiplatelet compound could be displaced from HSA by the other, the binding site marker experiments were repeated, i.e. by titration of HSA with PSB 0777 (0‒38.5 µM) in the presence of 2.5 µM cangrelor, instead of a marker.

human serum albumin [4] = biological target: T1, human serum albumin; experiment: Synchronous fluorescence spectra of HSA; type: binding; design: purchased Sigma (St. Louis, MO, United States); conditions: 0‒38.5 μM
Procedure: as §1
To monitor changes in the polarity around the tyrosine and tryptophan residues of HSA evoked by the examined compounds, the synchronous fluorescence spectra of HSA (Δλ 15 nm and Δλ 60 nm) were recorded in the presence of increasing concentrations of PSB 0777 and cangrelor (0‒38.5 μM with 4 μM intervals).

[5] = tested on: platelet function in whole blood; design: method as in Boncler et al., 2018; conditions: ref Boncler et al., 2018; cited from earlier work
human serum albumin [6] = biological target: T1, human serum albumin; experiment: Surface plasmon resonance binding to immobilized HSA (Biacore X)
Procedure: Briefly, 100 µg of HSA was dissolved in 1 ml of 10 mM sodium acetate buffer, pH 4.0, and immobilized on the flow cell 1 of the sensor chip surface. No protein was immobilized on the flow cell 2, which was used as a control. […] The curves from three independent experiments were analyzed by global curve fitting of the entire data set using the Langmuir binding model with the BIAevaluation 4.1.1 software (Biacore AG, Uppsala, Sweden).

[7] = tested on: platelets (platelet-rich plasma, isolated platelets); experiment: Inhibition of ADP-induced platelet activation (P-selectin/CD62P expression, flow cytometry); type: cell-based, human; conditions: 17 nM, 10 μM ADP; for decrease of ADP-dependent platelet activation: n = 5; for inhibition at 0.017 µM: Homo sapiens, Platelet, n = 6
Procedure: Human blood was obtained from consecutively recruited healthy volunteers (simple random non-stratified sampling): four men and seven women; mean age 25 ± 5 years. All individuals provided their written informed consent to participate in the study. The exclusion criteria were the same as described previously ([Wzorek et al., 2020]). The study was approved by the Human Studies Committee of the Medical University of Lodz (Poland) and was conducted in accordance with the guidelines established by the Declaration of Helsinki. Whole blood was collected into polypropylene tubes with a blood-to-acid citrate dextrose solution (ACD) ratio of 6:1 (vol:vol).
Human platelet-rich plasma (PRP) was prepared by centrifuging of anticoagulated whole blood at 190 x g for 12 min at 37°C. Platelet-poor plasma (PPP) was prepared by centrifuging the whole blood fraction left after removal of the PRP at 2500 x g for 12 min at 37°C. Platelet count in PRP was measured with automated haematology analyzer Sysmex XS-800i™ (Sysmex, Kobe, Japan) and adjusted to 1 × 10^8 cells per ml.
Suspensions of isolated platelets were obtained from PRP separated from anticoagulated whole blood containing 50 ng/ml PGE1. PRP was centrifuged at 800 x g for 15 min at 37°C to obtain a platelet pellet. Platelet pellet was immediately suspended in the Tyrode buffer (134 mM NaCl, 12 mM NaHCO3, 2.9 mM KCl, 0.34 mM Na2HPO4, 1 mM MgCl2, 10 mM HEPES, 5 mM glucose, pH 7.4) and diluted to a count 1 × 10^8 per ml, as described above.
The effect of plasma or HSA on inhibition of platelet activation by cangrelor was assessed by two-colour flow cytometry with the use of anti-CD61/PerCP (for platelet gating) and anti-CD62/PE (for detection of activated platelets). The antiplatelet activity of cangrelor was evaluated in PRP and suspensions of isolated platelets, when the effect of plasma was examined, or in isolated platelets containing 4% HSA, when the effect of albumin was studied. […] The activated platelets were stained with antibodies prior to fixation as described previously ([Wzorek et al., 2020]). A total of 10,000 events were acquired in each experiment using a FACSCanto II flow cytometer and surface expression of CD62P (P-selectin) in platelets was analysed using FACS/Diva v. 6.0 software (Becton-Dickinson, Franklin Lakes, NJ, United States).

HSA = conditions: 2005, cited from earlier work
[8] = concentration range 0–5 μM, 25°C
[9] = highest drug concentration 38.5 µM, n = 3

T1 sequence (P02768 25-609): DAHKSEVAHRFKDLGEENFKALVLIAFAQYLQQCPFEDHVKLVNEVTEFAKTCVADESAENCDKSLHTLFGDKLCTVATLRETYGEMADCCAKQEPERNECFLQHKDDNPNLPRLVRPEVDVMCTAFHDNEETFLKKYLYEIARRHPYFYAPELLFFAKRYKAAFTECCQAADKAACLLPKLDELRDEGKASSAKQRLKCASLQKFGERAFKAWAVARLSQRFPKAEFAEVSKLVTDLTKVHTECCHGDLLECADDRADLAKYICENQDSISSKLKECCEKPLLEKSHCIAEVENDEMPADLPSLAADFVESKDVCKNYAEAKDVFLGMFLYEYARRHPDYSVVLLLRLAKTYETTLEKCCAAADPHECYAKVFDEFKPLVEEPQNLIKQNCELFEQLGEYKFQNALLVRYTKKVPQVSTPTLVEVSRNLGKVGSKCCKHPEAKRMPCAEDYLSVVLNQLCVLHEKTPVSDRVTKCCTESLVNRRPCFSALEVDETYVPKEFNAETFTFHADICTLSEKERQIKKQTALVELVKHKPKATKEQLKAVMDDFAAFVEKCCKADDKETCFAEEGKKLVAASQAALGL

Row | SMILES | Number of binding sites n (human serum albumin [2]; 0‒38.5 µM, n = 3) | ΔG^θ (human serum albumin [2]; 292 K) [kcal/mol] | ΔG^θ (human serum albumin [2]; 302 K) [kcal/mol] | KA (human serum albumin [2]; 302 K) | ΔG^θ (human serum albumin [2]; 312 K) [kcal/mol] | KA (human serum albumin [2]; 312 K) | decrease of HSA fluorescence (human serum albumin [2]; [8]) [%] | decrease of HSA fluorescence (human serum albumin [2]; [9]) [%] | ΔH^θ (human serum albumin [2]) [kcal/mol] | ΔS^θ (human serum albumin [2]) [J/mol * K] | increase of dissociation constant in the presence of competitor compared to control (human serum albumin [3]; competitor warfarin) [fold] | n with competitor (human serum albumin [3]; competitor warfarin 2.5 µM) | n without competitor (human serum albumin [3]; control of the warfarin series) | mean red shift of emission peak (human serum albumin [4]; Δλ 15 nm (tyrosine)) [nm] | mean red shift of emission peak (human serum albumin [4]; Δλ 60 nm (tryptophan)) [nm] | further results
1 | Nc1nc(SCCc2ccc(S(=O)(=O)O)cc2)nc2c1ncn2[C@@H]1O[C@H](CO)[C@@H](O)[C@H]1O [PSB 0777] | 0.83 [−0.22 to 1.87] | -6.551 | -6.733 | 6.43 [−5.24 to 1.99] × 10^4 [M^−1] | -6.917 | 7.50 [−0.90 to 3.91] × 10^4 [M^−1] | 25 | 70 | -1.21 | 76.49 | 1.4 | 0.59 [0.19‒0.99] | 0.69 [0.51‒0.88] | 0.5 | 0.8 | Kd (human serum albumin [1]): 80.6 µM; increase of dissociation constant in the presence of competitor compared to control (human serum albumin [3]; competitor cangrelor): 1.2 fold; n with competitor (human serum albumin [3]; competitor cangrelor 2.5 µM): 0.65 [0.39‒0.92]; n without competitor (human serum albumin [3]; control of the cangrelor series): 0.61 [0.32‒0.89]
2 | CSCCNc1nc(SCCC(F)(F)F)nc2c1ncn2[C@@H]1O[C@H](COP(=O)(O)OP(=O)(O)C(Cl)(Cl)P(=O)(O)O)[C@@H](O)[C@H]1O [cangrelor] | 0.99 [−0.29 to 2.27] | -6.522 | -6.812 | 10.31 [0.20‒6.97] × 10^4 [M^−1] | -7.101 | 8.47 [0.19‒5.45] × 10^4 [M^−1] | 40 | 75 | 1.93 | 121.01 | 2 | 1.39 [−0.07 to 2.85] | 1.10 [0.67‒1.52] | 0.3 | 2.1 | IC50 [5]: 0.017 µM; Kd (human serum albumin [6]; KA (equilibrium association constant), obtained from the binding rate constants): 16.3 µM; koff (human serum albumin [6]; human, pH 7.4): 0.0573 ± 0.000323 s⁻¹; kon (human serum albumin [6]; human, pH 7.4): 2820 ± 1.4e+06 M⁻¹ s⁻¹; Kd (human serum albumin [2]; 0‒38.5 µM, nonlinear regression, n = 3): 10.9 µM; Kd (human serum albumin [2]; 292 K, n = 3): 14.5 µM; Kd (human serum albumin [2]; 302 K, n = 3): 9.7 µM; Kd (human serum albumin [2]; 312 K, n = 3): 11.8 µM; decrease of ADP-dependent platelet activation ([7]; isolated platelets (compared with PRP)): 95%; decrease of ADP-dependent platelet activation ([7]; platelet-rich plasma): 77%; inhibition at 0.017 µM ([7]; control isolated platelets without HSA): 97%; inhibition at 0.017 µM ([7]; isolated platelets with 4% HSA): 74%; Kd (human serum albumin [3]; competitor warfarin 2.5 µM, read-out: KD with competitor): 16.8 µM; Kd (human serum albumin [3]; control of the warfarin series, read-out: KD without competitor): 8.3 µM
3 | CC(C)Cc1ccc(C(C)C(=O)O)cc1 (centres unmarked) [ibuprofen] |  |  |  |  |  |  |  |  |  |  |  |  |  |  |  | KA (binding constant) reported earlier (HSA; used in the racemic form, ref Dufour and Dangles): 10^5–10^6 M^−1
4 | CC(=O)CC(c1ccccc1)c1c(O)c2ccccc2oc1=O (centres unmarked) [warfarin] |  |  |  |  |  |  |  |  |  |  |  |  |  |  |  | KA reported earlier (HSA; ref Yamasaki et al., 1996, Watanabe et al., 2001, Dufour and Dangles): 10^4–10^5 M^−1
